Patent US20220306695A1, “COMPSTATIN ANALOGUES AND THEIR MEDICAL USES” (priority 2019, published 2022)
Starred links: 1 amine or outer side, 2 acyl side, 3 side chain; linkers in the order of their positions; H or OH if unused. Positions of bridges follow the written chain, without caps; N, C: chain ends. Non-standard residues stand in square brackets, D forms with d. Residues, ends and D or L forms follow the SMILES beside them. Groups on a side chain read outwards from the residue. *: point of attachment. Trp(1-Me) = Cn1cc(C[C@H](N)C(=O)O)c2ccccc21; C18 diacid = O=C(O)CCCCCCCCCCCCCCCCC(=O)*; γGlu = O=C(O)[C@H](CCC(=O)[*:2])N[*:1]; AEEA = NCCOCCOCC(=O)O; Sar = CNCC(=O)O

What follows are compounds tested on classical complement pathway (assay: In vitro haemolysis assay (inhibition of classical complement pathway)). Conditions: Table 3; human serum, sensitized sheep red blood cells; read-out: IC50[nM], in vitro analysis of inhibition of hemolysis.
Format: cell-based, human
Procedure: Method The in vitro effect of test compounds was assessed by measuring their inhibitory effect of the classical complement pathway in a haemolysis assay. Briefly, test compounds and reference compounds were dissolved in DMSO and diluted in Tris/Casein Assay Buffer (10 mM Tris, 145 mM NaCl, 0.5 mM MgCl2, 0.15 mM CaCl2, and 0.1% W/V Casein, adjusted to pH 7.4) as 9-point serial dilutions in a 96 well plate. Sensitized sheep red blood cells (RBC) coated with rabbit anti-sheep erythrocyte antiserum (Complement Technology, Inc., TX, USA) were washed in Tris/Casein Assay Buffer. 50 μL from each well of diluted compound was added to a 96-well plate containing 50 μL diluted human serum (Complement Technology, Inc., TX, USA) and incubated for 15 minutes at room temperature. The serum dilution factor was optimized for every serum batch to obtain 70-90% of maximal haemolysis using the protocol. Then 50 μL sensitized sheep red blood cells were added to all wells ([…] per well). After 30 minutes of incubation at 37° C. with gentle agitation, the reaction was stopped by addition of 50 μL Tris STOP Buffer per well (10 mM EDTA, 10 mM Tris, 145 mM NaCl adjusted to pH 7.4). The RBCs were then removed by centrifugation and the resulting supernatant measured for hemolysis by absorbance at 405 nm. The response was normalized relative to a positive and negative control (vehicle) to calculate the IC50 from the concentration response curve using the 4-parameter logistic (4PL) nonlinear model for curve fitting.
With `CC[C@H](C)[C@H](NC(C)=O)C(=O)N[C@H]1CSSC[C@@H](C(=O)N[C@H](C(N)=O)[C@@H](C)O)NC(=O)[C@H](CO)NC(=O)[C@H](Cc2c[nH]cn2)NC(=O)[C@H](C)NC(=O)CNC(=O)[C@H](Cc2c[nH]c3ccccc23)NC(=O)[C@H](CC(=O)O)NC(=O)[C@H](CCC(N)=O)NC(=O)[C@H](Cc2c[nH]c3ccccc23)NC(=O)[C@H]([C@@H](C)CC)NC1=O` [Compound 19] (Ac-ICIWQDWGAHSCT-NH2; disulfide 2-12) the IC50 was < 250 nM. In the case of `CC[C@H](C)[C@@H]1NC(=O)[C@@H](NC(=O)CN(C)C(=O)[C@H](N)Cc2ccc(O)cc2)CSSC[C@@H](C(=O)N[C@H](C(=O)N[C@@H](CCC(=O)O)C(=O)N[C@@H](C)C(N)=O)[C@@H](C)O)NC(=O)[C@H](CCCNC(=N)N)NC(=O)[C@H](Cc2c[nH]cn2)NC(=O)[C@H](CCC(=O)O)NC(=O)CNC(=O)[C@H](Cc2c[nH]c3ccccc23)NC(=O)[C@H](CC(=O)O)NC(=O)[C@H](CCC(N)=O)NC(=O)[C@H](Cc2cn(C)c3ccccc23)NC1=O` [Compound 91] (H-[dY][Sar]CI[Trp(1-Me)]QDWGEHRCTEA-NH2; disulfide 3-13), the IC50 is reported as < 100 nM. In the case of `CC[C@H](C)[C@@H]1NC(=O)[C@@H](NC(=O)[C@H](Cc2ccc(O)cc2)NC(=O)[C@H](CCC(=O)O)NC(=O)CNC(=O)[C@H](CO)NC(=O)[C@H](C)NC(C)=O)CSSC[C@@H](C(=O)N(C)CC(=O)N[C@@H](CCC(=O)O)C(=O)NCC(=O)N[C@@H](CCC(=O)O)C(=O)N[C@@H](CCCCNC(=O)CC[C@H](NC(=O)CNC(=O)CC[C@H](NC(=O)CCCCCCCCCCCCCCCCC(=O)O)C(=O)O)C(=O)O)C(N)=O)NC(=O)[C@H](CCCNC(=N)N)NC(=O)[C@H](Cc2c[nH]cn2)NC(=O)[C@H](CCC(=O)O)NC(=O)CNC(=O)[C@H](Cc2c[nH]c3ccccc23)NC(=O)[C@H](CC(=O)O)NC(=O)[C@H](CCC(N)=O)NC(=O)[C@H](Cc2cn(C)c3ccccc23)NC1=O` [Compound 113] (Ac-ASGEYCI[Trp(1-Me)]QDWGEHRC[Sar]EGEK([γGlu-Gly-γGlu-C18 diacid])-NH2; disulfide 6-16), the IC50 is reported as < 500 nM. With `CC[C@H](C)[C@@H]1NC(=O)[C@@H](NC(=O)[C@H](Cc2ccccc2)NC(=O)[C@H](CCC(=O)O)NC(=O)[C@H](CO)NC(C)=O)CSSC[C@@H](C(=O)N(C)CC(=O)N[C@@H](CCC(=O)O)C(=O)N[C@@H](CCCCN)C(=O)N[C@@H](CCC(=O)NCC(=O)NCC(=O)NCC(=O)N[C@@H](CCCCNC(=O)CC[C@H](NC(=O)CNC(=O)CC[C@H](NC(=O)CCCCCCCCCCCCCCCCC(=O)O)C(=O)O)C(=O)O)C(N)=O)C(=O)O)NC(=O)[C@H](CCCNC(=N)N)NC(=O)[C@H](Cc2c[nH]cn2)NC(=O)[C@H](CCC(=O)O)NC(=O)CNC(=O)[C@H](Cc2c[nH]c3ccccc23)NC(=O)[C@H](CC(=O)O)NC(=O)[C@H](CCC(N)=O)NC(=O)[C@H](Cc2cn(C)c3ccccc23)NC1=O` [Compound 132] (Ac-SEFCI[Trp(1-Me)]QDWGEHRC[Sar]EK[γGlu]GGGK([γGlu-Gly-γGlu-C18 diacid])-NH2; disulfide 4-14) the IC50 was < 100 nM. In the case of `CC[C@H](C)[C@@H]1NC(=O)[C@@H](NC(=O)[C@H](Cc2ccc(O)cc2)NC(=O)[C@H](C)NC(=O)[C@H](CO)NC(=O)CNC(=O)[C@H](CCC(=O)O)NC(C)=O)CSSC[C@@H](C(=O)N(C)CC(=O)N[C@@H](CCC(=O)O)C(N)=O)NC(=O)[C@H](CCCNC(=N)N)NC(=O)[C@H](Cc2c[nH]cn2)NC(=O)[C@H](CCC(=O)O)NC(=O)CNC(=O)[C@H](Cc2c[nH]c3ccccc23)NC(=O)[C@H](CCC(=O)O)NC(=O)[C@H](CCC(N)=O)NC(=O)[C@H](Cc2cn(C)c3ccccc23)NC1=O` [Compound 70] (Ac-EGSAYCI[Trp(1-Me)]QEWGEHRC[Sar]E-NH2; disulfide 6-16), the IC50 is reported as < 100 nM. For `CC[C@H](C)[C@H](NC(C)=O)C(=O)N[C@H]1CSSC[C@@H](C(=O)N[C@H](C(N)=O)[C@@H](C)O)NC(=O)[C@H](CCCNC(=N)N)NC(=O)[C@H](Cc2c[nH]cn2)NC(=O)[C@H](CCC(=O)O)NC(=O)CNC(=O)[C@H](Cc2c[nH]c3ccccc23)NC(=O)[C@H](CCC(=O)O)NC(=O)[C@H](CCC(N)=O)NC(=O)[C@H](Cc2c[nH]c3ccccc23)NC(=O)[C@H]([C@@H](C)CC)NC1=O` [Compound 16] (Ac-ICIWQEWGEHRCT-NH2; disulfide 2-12), the IC50 was < 100 nM. `CC[C@H](C)[C@@H]1NC(=O)[C@@H](NC(=O)[C@H](Cc2ccc(O)cc2)NC(=O)[C@H](C)NC(=O)[C@H](CO)NC(=O)[C@H](CO)NC(=O)[C@H](CCC(=O)O)NC(C)=O)CSSC[C@@H](C(=O)N[C@H](C(N)=O)[C@@H](C)O)NC(=O)[C@H](CCCNC(=N)N)NC(=O)[C@H](Cc2c[nH]cn2)NC(=O)[C@H](CCC(=O)O)NC(=O)CNC(=O)[C@H](Cc2c[nH]c3ccccc23)NC(=O)[C@H](CC(=O)O)NC(=O)[C@H](CCC(N)=O)NC(=O)[C@H](Cc2c[nH]c3ccccc23)NC1=O` [Compound 10] (Ac-ESSAYCIWQDWGEHRCT-NH2; disulfide 6-16) was tested, and the IC50 was < 100 nM. For `CC[C@H](C)[C@@H]1NC(=O)[C@@H](NC(=O)[C@H](Cc2ccccc2)NC(=O)[C@H](CCC(=O)O)NC(C)=O)CSSC[C@@H](C(=O)N(C)CC(=O)N[C@@H](CCC(=O)O)C(=O)N[C@@H](C)C(=O)NCCOCCOCC(=O)NCCOCCOCC(=O)N[C@@H](CCCCNC(=O)CC[C@H](NC(=O)CNC(=O)CC[C@H](NC(=O)CCCCCCCCCCCCCCCCC(=O)O)C(=O)O)C(=O)O)C(N)=O)NC(=O)[C@H](CCCNC(=N)N)NC(=O)[C@H](Cc2c[nH]cn2)NC(=O)[C@H](CCC(=O)O)NC(=O)CNC(=O)[C@H](Cc2c[nH]c3ccccc23)NC(=O)[C@H](CC(=O)O)NC(=O)[C@H](CCC(N)=O)NC(=O)[C@H](Cc2cn(C)c3ccccc23)NC1=O` [Compound 145] (Ac-EFCI[Trp(1-Me)]QDWGEHRC[Sar]EA[AEEA][AEEA]K([γGlu-Gly-γGlu-C18 diacid])-NH2; disulfide 3-13), the IC50 was < 100 nM. `CC[C@H](C)[C@@H]1NC(=O)[C@@H](NC(=O)[C@H](Cc2ccccc2)NC(=O)[C@H](C)NC(=O)[C@H](CO)NC(=O)CNC(=O)[C@H](CCC(=O)O)NC(C)=O)CSSC[C@@H](C(=O)N[C@@H](CCC(=O)O)C(=O)NCC(=O)N[C@@H](CCC(=O)O)C(N)=O)NC(=O)[C@H](CCCNC(=N)N)NC(=O)[C@H](Cc2c[nH]cn2)NC(=O)[C@H](CCC(=O)O)NC(=O)CNC(=O)[C@H](Cc2c[nH]c3ccccc23)NC(=O)[C@H](CC(=O)O)NC(=O)[C@H](CCC(N)=O)NC(=O)[C@H](Cc2cn(C)c3ccccc23)NC1=O` [Compound 58] (Ac-EGSAFCI[Trp(1-Me)]QDWGEHRCEGE-NH2; disulfide 6-16) was tested, and the IC50 was < 100 nM. In the case of `CC[C@H](C)[C@@H]1NC(=O)[C@@H](NC(=O)[C@@H](NC(=O)[C@H](CCC(=O)O)NC(=O)CNC(=O)[C@H](CCC(=O)O)NC(C)=O)[C@@H](C)CC)CSSC[C@@H](C(=O)N[C@@H](CCC(=O)O)C(=O)NCC(=O)N[C@@H](CCC(=O)O)C(N)=O)NC(=O)[C@H](CCCNC(=N)N)NC(=O)[C@H](Cc2c[nH]cn2)NC(=O)[C@H](CCC(=O)O)NC(=O)CNC(=O)[C@H](Cc2c[nH]c3ccccc23)NC(=O)[C@H](CC(=O)O)NC(=O)[C@H](CCC(N)=O)NC(=O)[C@H](Cc2c[nH]c3ccccc23)NC1=O` [Compound 35] (Ac-EGEICIWQDWGEHRCEGE-NH2; disulfide 5-15), the IC50 is reported as < 500 nM.

Same assay, conditions: Table 4; valine 3 versus isoleucine 3 pairs; read-out: CP hemolysis IC50
With `CC[C@H](C)[C@H](NC(C)=O)C(=O)N[C@H]1CSSC[C@@H](C(=O)N[C@H](C(N)=O)[C@@H](C)O)NC(=O)[C@H](CO)NC(=O)[C@H](Cc2c[nH]cn2)NC(=O)[C@H](C)NC(=O)CNC(=O)[C@H](Cc2c[nH]c3ccccc23)NC(=O)[C@H](CC(=O)O)NC(=O)[C@H](CCC(N)=O)NC(=O)[C@H](Cc2c[nH]c3ccccc23)NC(=O)[C@H]([C@@H](C)CC)NC1=O` [Compound 19] (Ac-ICIWQDWGAHSCT-NH2; disulfide 2-12) the IC50 was 140 nM. Work on `CC[C@H](C)[C@H](NC(=O)[C@H](C)NC(=O)[C@H](CO)NC(=O)CNC(=O)[C@H](CCC(=O)O)NC(C)=O)C(=O)N[C@H]1CSSC[C@@H](C(=O)N(C)CC(=O)N[C@@H](CCC(=O)O)C(N)=O)NC(=O)[C@H](CCCNC(=N)N)NC(=O)[C@H](Cc2c[nH]cn2)NC(=O)[C@H](CCC(=O)O)NC(=O)CNC(=O)[C@H](Cc2c[nH]c3ccccc23)NC(=O)[C@H](CC(=O)O)NC(=O)[C@H](CCC(N)=O)NC(=O)[C@H](Cc2c[nH]c3ccccc23)NC(=O)[C@H](C(C)C)NC1=O` [H, reference compound] (Ac-EGSAICVWQDWGEHRC[Sar]E-NH2; disulfide 6-16) yielded an IC50 of 330 nM. With `CC[C@H](C)[C@H](NC(C)=O)C(=O)N[C@H]1CSSC[C@@H](C(=O)N[C@H](C(N)=O)[C@@H](C)O)NC(=O)[C@H](CO)NC(=O)[C@H](Cc2c[nH]cn2)NC(=O)[C@H](CCC(=O)O)NC(=O)CNC(=O)[C@H](Cc2c[nH]c3ccccc23)NC(=O)[C@H](CC(=O)O)NC(=O)[C@H](CCC(N)=O)NC(=O)[C@H](Cc2c[nH]c3ccccc23)NC(=O)[C@H](C(C)C)NC1=O` [F, reference compound] (Ac-ICVWQDWGEHSCT-NH2; disulfide 2-12) the IC50 was 540 nM. With `CC[C@H](C)[C@H](NC(=O)[C@H](C)NC(=O)[C@H](CO)NC(=O)[C@H](CO)NC(=O)[C@H](CCC(=O)O)NC(C)=O)C(=O)N[C@H]1CSSC[C@@H](C(=O)N[C@H](C(N)=O)[C@@H](C)O)NC(=O)[C@H](CCCNC(=N)N)NC(=O)[C@H](Cc2c[nH]cn2)NC(=O)[C@H](CCC(=O)O)NC(=O)CNC(=O)[C@H](Cc2c[nH]c3ccccc23)NC(=O)[C@H](CC(=O)O)NC(=O)[C@H](CCC(N)=O)NC(=O)[C@H](Cc2c[nH]c3ccccc23)NC(=O)[C@H](C(C)C)NC1=O` [C, reference compound] (Ac-ESSAICVWQDWGEHRCT-NH2; disulfide 6-16) the IC50 was 300 nM.
